“Also recorded” adds a separate entry of the source.
Columns and labels:
[1] = system: β-amyloid; conditions: stated as known; cited from earlier work
[2] = target: Aβ40 (Homo sapiens, UniProt P05067); experiment: Competition with fluorescent dye ThT for binding to Aβ40 (in-vitro assay); conditions: FIG. 1
Protocol: Competition for fluorescent binding to Aβ40: the inhibition test of competition binding to amyloid was carried out, in which 2 μM Aβ40, 1 μM amyloid fluorescent dye ThT, and 0.47 nM, 0.94 nM, 4.7 nM, 9.4 nM, 47 nM, 94 nM, 470 nM, 940 nM, 4700 nM and 9400 nM of standard compounds (PiB and BTA-1) and the compound of the present invention as the competing compounds were used. The reaction was carried out for 2 hrs at room temperature, which was excited by using Anthos Zenyth 3100 at an excitation wavelength of 485 nm, and then emitted a florescence of 535 nm. The binding rate of ThT to amyloid was set to 1 where no compound of the present invention was added to compete with ThT for binding. The PiB and BTA-1 were used as positive controls, and the binding rate of each concentration of compound was calculated according to the formula: binding rate=(fluorescence intensity with the compound of the present invention/fluorescence intensity without the compound of the present invention). The result is shown in FIG. 1, in which the horizontal axis is the concentration of the competing compound, and the longitudinal axis is the binding rate of ThT.

Sequence of Aβ40 (P05067 672-711 limits assumed): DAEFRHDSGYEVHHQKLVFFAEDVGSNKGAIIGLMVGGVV

| Compound | affinity to β-amyloid [1] | binding rate of ThT to amyloid in competition with the compound ([2]; 2 μM Aβ40, 1 μM ThT, 0.47 nM to 9400 nM competing compound, 2 hrs at room temperature, excitation 485 nm, emission 535 nm) | ThT binding rate compared with PiB and BTA-1 ([2]; at a low concentration of competing compound) |
| --- | --- | --- | --- |
| CNc1ccc(-c2nc3ccccc3s2)cc1 [BTA-1] | high affinity |  |  |
| CC(C)c1ccc(N2Cc3ccc(N)cc3C2)cc1 [the compound of the present invention, N-(4-isopropylphenyl)-5-amino-isoindoline] |  | can compete with the β-amyloid dye thioflavin T (ThT) for binding to amyloid; also recorded: decrease gradually with the increasing concentration of the compound of the present invention | comparable to that of other known compounds at a low concentration |
| [11CH3]Nc1ccc(-c2nc3ccc(O)cc3s2)cc1 [PiB] | high affinity |  |  |
